# Data reported in article PMC3622673, “Screening Compounds with a Novel High-Throughput ABCB1-Mediated Efflux Assay Identifies Drugs with Known Therapeutic Targets at Risk for Multidrug Resistance Interference” (PLoS ONE, 2013).
# Where a name gives a salt, the structure may show the parent alone. Read-outs that look alike come from different tables or passages of the source.
# Legend:
# ABCB1 [1] = biological target: T1, ABCB1 (Homo sapiens, UniProt P08183); experiment: Cell and fluorescent imaging-based ABCB1-mediated efflux assay (IncuCyte FLR) in KB-V1 cells; settings: for inhibition at 10 µM: human;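 as to all read-outs here: ABCB1-overexpressing KB-V1 cells, live-cell fluorescence imaging of retained calcein (from calcein AM) or MitoTracker Green FM, no preincubation with inhibitor, XR9576 as positive control, calcein AM alone as background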
# Protocol: (§2) The cell- and fluorescent imaging-based ABCB1-mediated efflux assays were carried out using ABCB1-overexpressing KB-V1 cells and calcein AM. Calcein AM was diluted in the culture media and then added directly to the cells grown in 96- or 384-well plates at the indicated final concentrations. Additionally, MitoTracker® Green FM was used as a fluorescent substrate in the ABCB1-mediated efflux assay. […] There was no incubation time after addition of the ABCB1 inhibitors. The only time delay between the addition of the inhibitors/drugs and the addition of calcein AM was the sample handling time. […] All wells contained 0.1% DMSO; except when the drugs were serial-diluted, in which the wells with the highest drug concentration contained 0.1% DMSO and the rest of wells contained diluted DMSO from the same working stock solution. The cell culture vessels were placed in a fluorescent and phase-contrast live cell imaging system, the IncuCyte^TMFLR (Essen BioScience, Ann Arbor, MI), in a 37°C incubator supplemented with 5% CO2. Both fluorescent and phase-contrast images (750×950 µm) were taken by the IncuCyte^TMFLR at the indicated time intervals. The approximate number of cells scanned was 200–600 cells per image. Auto-fluorescence of the compounds was determined by treating the cells with the drug candidates in the absence of calcein AM and fluorescence was measured using the IncuCyte^TMFLR and a fluorescent plate reader (Infinite 200 PRO, Tecan System, Inc., San Jose, CA).
# (§3) The IncuCyte^TMFLR was programmed to take 4 images per well of a 96-well plate or a single image per well of a 384-well plate. It takes 27 minutes to scan an entire 96-well plate at 4 images per well and 27 minutes to scan an entire 384-well plate at one image per well, respectively. Because intracellular accumulation of calcein is time sensitive, only 3 to 6 columns of a 96-well plate were used for a single experiment. Three positive control (XR9576) wells and three background (calcein AM only) wells were included in each 96-well plate or in each column in the 384-well plates. All experiments were repeated at least twice unless otherwise indicated.
# (§4) The IncuCyte^TMFLR software provides the mean of the total fluorescence intensity (mean fluorescence intensity), obtained by averaging fluorescent intensities from all the pixels in the image(s) from each well. The automatically generated mean fluorescence intensity is not corrected for the background fluorescence, which can often lead to distorted outputs. Additional software, the Object Counting v2.0 Analysis software provided by the IncuCyte^TMFLR, can assist further quantification and analysis of the fluorescent images. Using this software, a segmentation mask was generated to separate fluorescent (foreground) and non-fluorescent (background) objects so that the sum of the fluorescent intensity of the positive cells can be calculated without the interference from the background fluorescence. The Object Summed Intensity per mm^2 from the metrix menu was chosen to indicate the background corrected fluorescent intensity of each well and designated as the object intensity.
# (§5) The relative inhibition of each compound on calcein AM efflux was calculated by the following equation: [drawing 1] where X represents the mean fluorescence intensities or the object intensities, and T denotes the test compound. The final results were normalized to either the maximum values of the test compounds in the dose-response experiments or to the values from XR9576 (0.2 µM) treated cells.
# ABCB1 [2] = biological target: T1, ABCB1
# Protocol: as §2, §3, §4, §5
# ABCB1 [3] = biological target: T1, ABCB1; experiment: in vitro
# Protocol: as §2, §3, §4, §5
# [4] = Cell viability assay (CCK-8); settings: human, HCT-15-Pgp cells
# Protocol: HCT-15-Pgp cells were plated and cultured in 96-well plates for 1 or 2 days, until they reached 50–80% confluency. […] Cell viability was examined using the Cell Counting Kit-8 (CCK-8, Dojindo Molecular Technologies, Inc., Rockville, MD); which functions similar to MTT assays by reduction of the tetrazolium salt, WST-8, to yield a yellow-colored and water-soluble formazan dye (measured at 450 nm).
# KB-V1 cells = experiment: Cytotoxicity to KB-V1 cells seen in the imaging assay; assay type: cell-based, human
# Source text: (§1) Compounds that auto-fluoresced were excluded from further analysis.
# ABCB1 [5] = biological target: T1, ABCB1; experiment: Flow cytometry-based ABCB1-mediated efflux assay in KB-V1 cells; settings: compound 5 µM, calcein AM 1 µM
# Protocol: (§6) An ABCB1-mediated calcein AM efflux assay was also performed with KB-V1 cells and evaluated by flow cytometry as described previously [32]. KB-V1 cells were detached by brief trypsin treatment, followed by addition of medium containing 10% serum to neutralize the trypsin. The detached cells were collected by centrifugation, aliquoted at 500,000 cells/tube, and incubated with the test compounds at the indicated concentrations and calcein AM (1 µM) or MitoTracker® Green FM for 10 minutes in a 37°C water bath. After incubation, the cells were collected by centrifugation at 800xg for 5 minutes and resuspended in PBS/0.1% BSA. The fluorescent substrates retained in KB-V1 cells were detected by flow cytometry (BD FACSCalibur, BD Biosciences, Franklin Lakes, NJ). The data were analyzed with FlowJo 7.2.2 (Tree Star, Inc., Ashland, OR) and presented as histograms. […] Total number of cells counted per sample was 10,000.
# ABCB1 [6] = biological target: T1, ABCB1; experiment: Photolabeling of ABCB1 with [125I]IAAP; assay type: binding; parameters: made in house; host or cells: Hifive insect cells (crude / plasma membranes); settings: compound 20 µM, membranes from Hifive cells overexpressing human ABCB1, autoradiograph
# Protocol: The interaction of selected compounds with ABCB1 was assessed by an in vitro photolabeling assay as previously described [32].
# KB-3-1 cells = experiment: Cell imaging-based calcein accumulation in parental KB-3-1 cells; parameters: species or system human; settings: 1 µM calcein AM, 1 hour, mean fluorescence intensities
# Protocol: ABCB1-overexpressing KB-V1 cells, previously selected and maintained with vinblastine (1 µg/ml), and the parental line, KB-3-1 cells, were cultured in DMEM supplemented with 10% FBS [26], [27], [28]. Vinblastine was removed from the KB-V1 cell culture medium 2 to 3 days before each experiment. For the efflux assay, the cells were plated at either 20,000 cells per well in 96-well (100 µl/well) or 2,500 cells per well in 384-well (40 µl/well) flat, clear bottom, white or black-walled polystyrene tissue culture plates (uncoated) (Corning Life Sciences, Tewksbury, MA) and incubated at 37°C. After the cell confluence reached 30–80% (1 to 3 days in culture), the cell and fluorescent imaging-based efflux assays were performed. The ABCB1 overexpressing HCT-15-Pgp cells, used for the cytotoxicity assays, were also cultured in DMEM supplemented with 10% FBS [29]. All cell lines were gifts from Dr. Michael M. Gottesman (NCI, Bethesda, MD).
# as §1
# ABCB1 [7] = biological target: T1, ABCB1; remark: listed apart in the source
# Protocol: as §6
# [8] = ABCB1-overexpressing KB-V1 cells, probe calcein AM (1 µM)
# T1 sequence (P08183 whole entry): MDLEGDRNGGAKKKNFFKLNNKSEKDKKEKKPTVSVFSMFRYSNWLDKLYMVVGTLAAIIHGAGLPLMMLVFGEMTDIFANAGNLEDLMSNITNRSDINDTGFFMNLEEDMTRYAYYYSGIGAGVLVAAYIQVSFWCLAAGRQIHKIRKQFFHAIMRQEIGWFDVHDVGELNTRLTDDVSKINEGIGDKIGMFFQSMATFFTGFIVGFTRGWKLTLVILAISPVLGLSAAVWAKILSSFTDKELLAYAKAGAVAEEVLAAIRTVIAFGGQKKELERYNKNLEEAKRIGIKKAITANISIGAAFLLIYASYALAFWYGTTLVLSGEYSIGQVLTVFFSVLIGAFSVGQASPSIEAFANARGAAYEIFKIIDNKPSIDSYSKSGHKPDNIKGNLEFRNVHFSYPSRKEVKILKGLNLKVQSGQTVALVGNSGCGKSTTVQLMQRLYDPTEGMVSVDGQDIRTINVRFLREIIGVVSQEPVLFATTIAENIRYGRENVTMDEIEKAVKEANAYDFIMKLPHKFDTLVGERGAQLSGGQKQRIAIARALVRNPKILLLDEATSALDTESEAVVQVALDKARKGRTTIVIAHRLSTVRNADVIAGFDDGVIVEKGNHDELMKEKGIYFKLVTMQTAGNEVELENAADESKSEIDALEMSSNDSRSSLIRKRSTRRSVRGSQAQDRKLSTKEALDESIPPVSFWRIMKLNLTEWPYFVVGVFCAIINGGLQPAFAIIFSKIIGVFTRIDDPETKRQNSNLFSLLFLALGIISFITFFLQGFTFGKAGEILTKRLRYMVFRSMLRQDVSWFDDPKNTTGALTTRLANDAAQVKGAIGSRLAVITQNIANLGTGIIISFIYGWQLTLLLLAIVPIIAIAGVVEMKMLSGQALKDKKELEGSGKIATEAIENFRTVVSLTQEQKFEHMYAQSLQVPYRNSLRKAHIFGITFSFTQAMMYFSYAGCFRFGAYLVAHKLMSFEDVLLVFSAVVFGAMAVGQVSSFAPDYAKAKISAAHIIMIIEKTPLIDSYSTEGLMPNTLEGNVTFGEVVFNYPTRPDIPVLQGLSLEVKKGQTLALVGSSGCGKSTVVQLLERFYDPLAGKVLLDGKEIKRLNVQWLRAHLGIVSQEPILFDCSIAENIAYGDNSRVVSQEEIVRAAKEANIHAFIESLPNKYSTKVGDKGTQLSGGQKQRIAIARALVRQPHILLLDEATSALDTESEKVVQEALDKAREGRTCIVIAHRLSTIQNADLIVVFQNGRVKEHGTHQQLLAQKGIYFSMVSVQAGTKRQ
inhibition at 10 µM (ABCB1 [1]; [8]) [%],inhibition at 10 µM (ABCB1 [3]) [%],SMILES,other results
–,≥ 50,"COc1cc(Nc2c(C#N)cnc3cc(OCCCN4CCN(C)CC4)c(OC)cc23)c(Cl)cc1Cl [Bosutinib (SKI-606), Bosutinib]",–
–,≥ 50,"C=CC(=O)Nc1cc2c(Nc3ccc(F)c(Cl)c3)ncnc2cc1OCCCN1CCOCC1 [CI-1033 (Canertinib), Canertinib]",–
≥ 50,–,C[C@@H](Oc1cc(-n2cnc3ccc(CN4CCN(C)CC4)cc32)sc1C(N)=O)c1ccccc1C(F)(F)F [GSK461364],–
–,≥ 50,"Cc1ccc(NC(=O)c2ccc(CN3CCN(C)CC3)cc2)cc1Nc1nccc(-c2cccnc2)n1 [Imatinib (STI571), Imatinib]",–
≥ 50,–,CS(=O)(=O)CCNCc1ccc(-c2ccc3ncnc(Nc4ccc(OCc5cccc(F)c5)c(Cl)c4)c3c2)o1 [Lapatinib Ditosylate],–
≥ 50,–,"Cc1ccc(NC(=O)c2ccc(CN3CCN(C)CC3)cc2)cc1Nc1nc(-c2cccnc2)cs1 [Masitinib (AB1010), Masitinib]",–
–,≥ 50,Cc1cn(-c2cc(NC(=O)c3ccc(C)c(Nc4nccc(-c5cccnc5)n4)c3)cc(C(F)(F)F)c2)cn1 [Nilotinib],–
–,≥ 50,C=CC(=O)Nc1cccc(Oc2nc(Nc3ccc(N4CCN(C)CC4)cc3OC)ncc2Cl)c1 [WZ4002],–

# Second part, the compound before the results:
SMILES,inhibition at 10 µM (ABCB1 [1]; [8]) [%],inhibition at 10 µM (ABCB1 [3]) [%],other results
"COc1cc2nccc(Oc3ccc(NC(=O)Nc4cc(C)on4)c(Cl)c3)c2cc1OC [AV-951 (Tivozanib), Tivozanib]",≥ 50,–,–
"CN1CCN(CCOc2cc(OC3CCOCC3)c3c(Nc4c(Cl)ccc5c4OCO5)ncnc3c2)CC1 [AZD0530 (Saracatinib), Saracatinib]",≥ 50,–,–
Cn1c(=O)n(-c2ccc(C(C)(C)C#N)cc2)c2c3cc(-c4cnc5ccccc5c4)ccc3ncc21 [BEZ235],–,≥ 50,Inhibition of ABCB1-mediated calcein AM efflux in dose-response experiment (ABCB1 [2]): dose-dependent inhibition; IC50 (ABCB1 [1]): 20.1 µM
CC[C@@H]1C(=O)N(C)c2cnc(Nc3ccc(C(=O)N[C@H]4CC[C@H](N5CCN(CC6CC6)CC5)CC4)cc3OC)nc2N1C(C)C [BI6727],≥ 50,–,–
CC[C@@H]1C(=O)N(C)c2cnc(Nc3ccc(C(=O)NC4CCN(C)CC4)cc3OC)nc2N1C1CCCC1 [BI 2536],–,–,IC50 at 48 h [4]: 1.28 µM
CN(C)C/C=C/C(=O)Nc1cc2c(Nc3ccc(F)c(Cl)c3)ncnc2cc1O[C@H]1CCOC1 [BIBW2992 (Tovok)],–,–,inhibition at 10 µM (ABCB1 [1]): ≥ 50%
"COc1cc2c(Oc3ccc4[nH]c(C)cc4c3F)ncnc2cc1OCCCN1CCCC1 [Cediranib (AZD2171), Cediranib]",–,≥ 50,–
"CC1(COc2ccc3c(c2)ncn3-c2ccc3cccc(N4CCC(N)CC4)c3n2)COC1 [Crenolanib (CP-868596), Crenolanib]",≥ 50,–,–
"C[S+](C)[O-] [DMSO, dimethyl sulfoxide]",–,–,Concentration toxic to KB-V1 cells (KB-V1 cells; 1 µM calcein AM (data not shown)): ≥ 0.5 % (v/v)
"CO[C@H]1C[C@@H]2CC[C@@H](C)[C@@](O)(O2)C(=O)C(=O)N2CCCC[C@H]2C(=O)O[C@H]([C@H](C)C[C@@H]2CC[C@@H](OP(C)(C)=O)[C@H](OC)C2)CC(=O)[C@H](C)/C=C(\C)[C@@H](O)[C@@H](OC)C(=O)[C@H](C)C[C@H](C)/C=C/C=C/C=C/1C [Deforolimus (MK-8669), Deforolimus]",–,≥ 50,–
"CO[C@H]1C[C@@H]2CC[C@@H](C)[C@@](O)(O2)C(=O)C(=O)N2CCCC[C@H]2C(=O)O[C@H]([C@H](C)C[C@@H]2CC[C@@H](OCCO)[C@H](OC)C2)CC(=O)[C@H](C)/C=C(\C)[C@@H](O)[C@@H](OC)C(=O)[C@H](C)C[C@H](C)/C=C/C=C/C=C/1C [Everolimus (RAD001), Everolimus]",≥ 50,–,–
"COc1ccc2c3c([nH]c2c1)[C@H](C=C(C)C)N1C(=O)[C@@H]2CCCN2C(=O)[C@@H]1C3 [FTC, fumitremorgin C]",–,–,"Inhibition of ABCB1-mediated calcein AM efflux, flow cytometry (ABCB1 [5]): neither ABCG2 specific inhibitor FTC nor ABCC1 specific inhibitor MK-571 interfered"
"COc1cc2ncnc(Nc3ccc(F)c(Cl)c3)c2cc1OCCCN1CCOCC1 [Gefitinib (Iressa), Gefitinib]",–,≥ 50,–
O=C(c1ccc(Nc2nccc(-c3cc4ccccc4s3)n2)cc1)N1CCC(N2CCCC2)CC1 [IKK 16],–,–,"IC50, inhibition of ABCB1-mediated calcein AM efflux (ABCB1 [2]): cannot be calculated from the data; Inhibition of ABCB1-mediated calcein AM efflux in dose-response experiment (ABCB1 [2]): dose-dependent inhibition; Inhibition of ABCB1-mediated calcein AM efflux, flow cytometry (ABCB1 [5]): inhibited; Competition with [125I]IAAP for direct binding to ABCB1 (ABCB1 [6]): successfully competed"
Cc1cnc(NC(=O)Nc2cc(Br)c(C)cc2OC[C@@H]2CNCCO2)cn1 [LY2603618],–,≥ 50,–
CN(C)C(=O)CCSC(SCCC(=O)O)c1cccc(/C=C/c2ccc3ccc(Cl)cc3n2)c1 (stereo not shown) [MK-571],–,–,"Inhibition of ABCB1-mediated calcein AM efflux, flow cytometry (ABCB1 [5]): neither ABCG2 specific inhibitor FTC nor ABCC1 specific inhibitor MK-571 interfered"
"S=C(NCc1ccc2c(c1)OCO2)N1CCN(c2ncnc3c2oc2ccccc23)CC1 [MP-470 (Amuvatinib), Amuvatinib]",≥ 50,–,–
CCOc1cc2ncc(C#N)c(Nc3ccc(F)c(Cl)c3)c2cc1NC(=O)/C=C/CN(C)C [Pelitinib],≥ 50,–,–
"CO[C@H]1C[C@@H]2CC[C@@H](C)[C@@](O)(O2)C(=O)C(=O)N2CCCC[C@H]2C(=O)O[C@H]([C@H](C)C[C@@H]2CC[C@@H](O)[C@H](OC)C2)CC(=O)[C@H](C)/C=C(\C)[C@@H](O)[C@@H](OC)C(=O)[C@H](C)C[C@H](C)/C=C/C=C/C=C/1C [Rapamycin (Sirolimus), Rapamycin]",–,≥ 50,–
O=C(Nc1cccc(Cl)c1)Nc1ncc(CCNc2ncnc3ccsc23)s1 [SNS-314 Mesylate],–,≥ 50,–
CO[C@H]1C[C@@H]2CC[C@@H](C)[C@@](O)(O2)C(=O)C(=O)N2CCCC[C@H]2C(=O)O[C@H]([C@H](C)C[C@@H]2CC[C@@H](OC(=O)C(C)(CO)CO)[C@H](OC)C2)CC(=O)[C@H](C)/C=C(\C)[C@@H](O)[C@@H](OC)C(=O)[C@H](C)C[C@H](C)/C=C/C=C/C=C/1C [Temsirolimus],–,≥ 50,–
"COc1cc2c(cc1OC)CN(CCc1ccc(NC(=O)c3cc(OC)c(OC)cc3NC(=O)c3cnc4ccccc4c3)cc1)CC2 [XR9576, tariquidar]",–,–,"Effect on fluorescent calcein accumulation (KB-3-1 cells): independent; Concentration cytotoxic to cells (KB-V1 cells; imaging assay (not shown)): > 1000 nM; Inhibition of ABCB1-mediated calcein AM efflux in dose-response experiment (ABCB1 [2]): dose-dependent inhibition; Inhibition of MitoTracker Green FM efflux, cell imaging (ABCB1 [2]; human): inhibition on ABCB1-mediated efflux was detected; Inhibition of MitoTracker Green FM efflux, flow cytometry (ABCB1 [7]): blocked; IC50 (ABCB1 [1]): 0.00728 µM"
"CCC/C=C/C=C/C(=O)O[C@H]1/C(=C/C(=O)OC)C[C@H]2C[C@H]([C@@H](C)O)OC(=O)C[C@H](O)C[C@@H]3C[C@H](OC(C)=O)C(C)(C)[C@](O)(C[C@@H]4C/C(=C/C(=O)OC)C[C@H](/C=C/C(C)(C)[C@]1(O)O2)O4)O3 [bryostatin-1, Bryostatin-1]",–,–,"Inhibition of ABCB1-mediated calcein AM efflux, flow cytometry (ABCB1 [5]): failed to inhibit; Inhibition of ABCB1-mediated calcein AM efflux in dose-response experiment (ABCB1 [1]; KB-V1 cells, 96-well plates, 1 µM calcein AM): failed to inhibit"
Cc1ccc(C(=O)N(CCCN)[C@@H](c2nc3cc(Cl)ccc3c(=O)n2Cc2ccccc2)C(C)C)cc1 [ispinesib],–,–,"Inhibition of ABCB1-mediated calcein AM efflux in dose-response experiment (ABCB1 [2]): dose-dependent inhibition; Inhibition of ABCB1-mediated calcein AM efflux, flow cytometry (ABCB1 [7]): inhibited; Competition with [125I]IAAP for direct binding to ABCB1 (ABCB1 [6]): marginal effect; IC50 (ABCB1 [1]): 5.04 µM"
